Columns and labels:
[1] = Dissolution in aqueous solution; type: physicochemical
[2] = system: RMA cells (T cell lymphoma of mouse origin); test: RMA mouse tumor model; type: in vivo
Description: In the RMA mouse tumor model (T cell lymphoma of mouse origin), T cells are known to participate in tumor rejection, and thus augmenting T cell effects might enhance the animal's ability to reject the tumor implant. RMA cells were injected to C57BL/6J Ola Hsd mice (10^5 cells per mouse) (Chen et al. (1994) J Exp Med, 179:523-532). […] Tumor size was measured and recorded.
An additional experiment was carried out in the same experimental system, comparing 6-APA to clavulanic acid.

[3] = system: encephalitogenic BP10 T-cell line; test: Adoptive EAE by BP10 line stimulated in vitro with test substance; type: in vivo, rat
Source text: The ability of a compound to enhance T cell activity may be determined, for example, using an in vivo assay testing the effect of a given compound on the severity of adoptive (passive) EAE, namely, EAE which is induced by the injection of activated encephalitogenic T cell line to the model animal. In order to test a compound, the encephalitogenic T cells are activated in the presence of the compound prior to injection. An exemplary procedure is described in the Examples section hereinbelow.
Antigen-specific T-cell lines were established from lymph node cells that had been stimulated with myelin basic protein (MBP; 10 μg/ml) for 3 days in stimulation medium as described below. Following stimulation, the T-cell blasts were isolated on Lympho-prep (Nycomed Pharma, Oslo, Norway) and seeded in propagation medium. Propagation medium was identical to stimulation medium without autologous serum, but supplemented with fetal calf serum 10% and T-cell growth factors from the supernatant of Con A stimulated spleen cells 10% (Mor et al. (1990) J Clin Invest, 85, 1594-1598). Animals were injected intra-peritoneally with 10^7 MBP-stimulated T cells, following 6-8 cycles of in vitro stimulations. It is known that MBP-reactive lines undergo a reduction in pathogenicity after 6 or more in vitro stimulations. In some experiments the BP10 line was stimulated with phorbol myristate acetate (PMA; 50 ng/ml) and ionomycin (500 ng/ml) for 3 days in stimulation medium, without antigen-presenting cells.
Active EAE was induced by subcutaneous injection of 25 μg guinea-pig MBP (GpMBP) in complete Freund's adjuvant (CFA). CFA was prepared by adding 4 mg/ml Mycobacterium tuberculosis H37Ra (Difco, Mich.) to incomplete Freund's adjuvant (IFA). Adoptive EAE was transferred by intra-peritoneal injection of guinea-pig MBP-activated cells of the BP10 line as described in Mor et al. (1993) J Clin Invest, 92, 2199-2206. […] Clinical scoring was: +1, paralysis of tail; +1.5, paresis of posterior paws and ataxia; +2, paraplegia; +3, paralysis extending to thoracic spine; +4, a moribund state.
Treatment with cefuroxime in vivo could affect many different host agents involved in EAE or AA as well as influencing the rats' bacterial flora. To test whether the antibiotic might directly modify the behavior of effector T cells, an encephalitogenic T-cell line was stimulated in the presence or absence of cefuroxime in vitro. The weakly encephalitogenic BP10 line was used, and was stimulated for 3 days with MBP in the presence or absence of cefuroxime (50 μg/ml). The activated T cells were then washed to remove the antibiotic, the T cells were injected intra-peritoneally into naïve recipient rats (10^7 per rat), and EAE was scored. The BP10 line at later stimulations was used, when its pathogenic potential is reduced, allowing to detect both suppression and enhancement of disease. […] To rule out antigen presenting cells (APC) as the target of the beta-lactam antibiotic, the encephalitogenic BP10 line was stimulated without APC using PMA (50 ng/ml) and Ionomycin (500 ng/ml) in the presence or absence of cefuroxime.

NOD mice = test: Autoimmune diabetes in NOD mice; type: in vivo, mouse; details: NOD mice at 5.7 months; SC weekly; ampicillin 1300 μg, ceftriaxone 675 μg per mouse
Description: NOD mice spontaneously develop diabetes mellitus similar to type I diabetes in humans. […] The mice were followed for the development of diabetes, marked by blood sugar above 300 mg/dl on 2 measurements.

[4] = system: experimental autoimmune encephalomyelitis (EAE) in rats; test: Actively induced EAE; type: in vivo, rat; details: oral in drinking water from day 7 postinduction, daily dose 50 mg/kg, versus two control groups
albumin [5] = test: Pen 9 western blot of cell lines treated with penicillin; type: cell-based; details: cell lines raised in vitro
albumin [6] = target: T1, albumin (Rattus norvegicus, UniProt P02770); test: Pen 9 detection of penicillin-albumin in vivo; details: Lewis rats, 50 mg/rat intraperitoneally, 2 hours later
T1 construct: from tissue; host or cells: various tissues and serum of Lewis rats
Description: Rat tissues were ground with a tissue grinder in lysis buffer. The homogenate was centrifuged 14000 g for 15 min in 4° C. and the supernatant was used for western blotting. The protein concentration was determined using the Bio-Rad Dc protein assay (Bio-Rad laboratories, Hercules, Calif.). Following electrophoresis in SDS gel in a mini-gel apparatus (Bio-Rad), the gels were electro-transferred to nitrocellulose membranes (Schleicher and schuell, Dassel, Germany). The nitrocellulose membranes were washed with distilled water for 5 min, and then blocked for 60 min. using a blocking solution composed of 2% bovine serum albumin (Fraction V, Sigma, St. Louis Mo.), 2.5% milk powder (Bio-Rad), Tris (Sigma) pH 7.5 10 mM, NaCl 150 mM and 0.02% thimerosal (Sigma). After 3×10 min. washes in PBS/Tween 20 (PBS/T; 0.02%, Sigma), primary antibodies ( 1/1000) were incubated with the membranes in PBS/Tween for 60 min. Following another series of washes in PBS/T (3×10 min), the membranes were incubated with a secondary antibody (Peroxidase conjugated anti rabbit or anti mouse, IgG Jackson ImmunoResearch, West Grove, Calif.) at a 1/2500 dilution in 2% milk in PBS solution for 60 min. After another 3×10 min washes, the membranes were incubated with the ECL reagent (for 60 seconds) and exposed to X-ray film. […]

human CD3 T cells = test: Pen 9 western blot of antibiotic-treated human T cells; type: cell-based; details: human T cells activated by mitogen in presence of the antibiotic
[7] = free penicillin; cited from earlier work
[8] = target: T2, 67 kDa band in human T-cell lysates (Homo sapiens, UniProt P02768); test: Radioactive penicillin binding assay; details: tritium-labeled, 10 and 20 μCi, 3 days with PMA and Ionomycin; CD4 and CD8 T cell lysates
T2 construct: endogenous in cells; host or cells: primary human CD4 or CD8 T cells from peripheral blood of healthy donors
Source text: Tritium labeled benzylpenicillin was obtained from Amersham (Buckinghamshire, UK; 250 μCi, 1 mCi/ml). Human CD4 or CD8 T cells were stimulated in 24 well plates, 5×10^6 cells per ml, with PMA and Ionomycin for 72 hr in the presence of 10 or 20 μCi of labeled penicillin. Following stimulation, the cells were collected, lysed and separated by SDS PAGE. The gels were fixed, treated with 1M sodium salicylate, and dried. The dried gels were exposed to x-ray film (BioMax MS film) for 14 days, with intensifying screen (BioMax TranScreen, Eastman Kodak Co., New Haven Conn., USA), and were developed.
To test whether beta-lactam antibiotics might affect T-cell behavior likewise by covalently binding a key T-cell protein, purified CD4 or CD8 human T cells were incubated with 10 and 20 μCi of tritium-labeled lactam benzylpenicillin (Amersham, Buckinghamshire, UK) for 3 days during stimulation with PMA and Ionomycin. The stimulated T cells were collected, washed, lysed and their proteins were subjected to SDS-PAGE separation. Dried gels were exposed in intensifying screens to Xray film for 2 weeks at −80° C. […] The intensity of the band was stronger at the 20 μCi concentration of penicillin.

[9] = 17 days after tumor injection, versus PBS treated and non-injected mice
[10] = BP10 line, same doses as penicillin

T2 sequence (P02768 25-609): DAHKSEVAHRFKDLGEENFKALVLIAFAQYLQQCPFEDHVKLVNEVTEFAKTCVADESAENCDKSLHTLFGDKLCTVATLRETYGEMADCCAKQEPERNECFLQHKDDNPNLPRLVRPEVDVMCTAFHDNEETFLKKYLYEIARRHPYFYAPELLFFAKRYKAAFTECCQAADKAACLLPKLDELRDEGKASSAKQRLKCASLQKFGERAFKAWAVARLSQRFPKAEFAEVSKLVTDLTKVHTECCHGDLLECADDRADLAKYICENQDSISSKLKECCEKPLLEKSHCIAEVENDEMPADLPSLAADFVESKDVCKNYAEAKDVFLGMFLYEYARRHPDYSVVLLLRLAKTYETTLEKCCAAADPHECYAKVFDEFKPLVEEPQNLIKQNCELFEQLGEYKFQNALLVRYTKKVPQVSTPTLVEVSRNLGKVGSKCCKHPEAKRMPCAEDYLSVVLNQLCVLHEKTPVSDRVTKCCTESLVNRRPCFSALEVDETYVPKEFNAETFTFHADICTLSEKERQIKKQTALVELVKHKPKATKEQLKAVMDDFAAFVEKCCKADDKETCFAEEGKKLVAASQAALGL

Question: With CC1(C)S[C@@H]2[C@H](N)C(=O)N2[C@H]1C(=O)O [6-APA, 6-aminopenicillanic acid] as the molecule, how does the “solubility in aqueous solution” value [1] read?
Answer: difficult to dissolve in aqueous solution

Question: And the tumor size [2, 9]?
Answer: smaller tumors

Question: What about the tumor size ([2]; C57BL/6J mice, SC 2 μg/mouse 3 times per week, last two measurements, versus control mice) of the same molecule?
Answer: significantly smaller

Question: What about the “severity of adoptive EAE” value [3, 10] of the same molecule?
Answer: EAE enhancing ability, similar to penicillin

Question: For CO/N=C(\C(=O)N[C@@H]1C(=O)N2C(C(=O)O)=C(CSc3nc(=O)c(=O)[nH]n3C)CS[C@H]12)c1csc(N)n1 [ceftriaxone], which incidence of diabetes (NOD mice) is on record?
Answer: 60%

Question: What about the “severity of adoptive EAE” value ([3]; BP10 line stimulated 3 days with MBP in presence of 50 μg/ml, 10^7 cells IP per rat) of the same molecule?
Answer: enhanced EAE severity

Question: Which “severity of actively induced EAE” value [4] does the source give for CO/N=C(\C(=O)N[C@@H]1C(=O)N2C(C(=O)OC(C)OC(C)=O)=C(COC(N)=O)CS[C@H]12)c1ccco1 (stereo partly shown) [cefuroxime axetil] here?
Answer: significantly more severe EAE

Question: Which results are given for O=C(O)[C@H]1/C(=C/CO)O[C@@H]2CC(=O)N21 [clavulanic acid]?
Answer: tumor size [2, 9]: smaller tumors; severity of adoptive EAE (pathogenicity of BP10 line) ([3]; BP10 line stimulated with 25 μg/ml, 5 rats per group): enhanced the pathogenicity of BP10 line

Question: What does the source list for CC1(C)S[C@@H]2[C@H](NC(=O)Cc3ccccc3)C(=O)N2[C@H]1C(=O)O [penicillin, benzylpenicillin]?
Answer: penicillin-modified albumin band in cell line lysates (albumin [5]): could be detected in mesenchymal stem cells, dendritic cells, Jurkat, MOLT4, FAO and CEM lines; 67 kD band (penicilloylated albumin) in tissue lysates (albumin [6]): appears in all tissues examined and is most abundant in serum; reactivity of Pen 9 antibody with lysates of treated T cells (human CD3 T cells): reacted specifically to a major protein of the penicillin-treated T cells; half-life [7]: 42 min; covalent binding to T-cell protein (radioactive band on SDS-PAGE) [8]: single major penicillin-protein radioactive band was detected at 67 kD

Question: Which “severity of adoptive EAE” value [3, 10] does the source give for C[C@]1(Cn2ccnn2)[C@H](C(=O)O)N2C(=O)C[C@H]2S1(=O)=O [tazobactam] here?
Answer: EAE enhancing ability, similar to penicillin

B1: Penicillin-modified rat albumin: rat albumin modified by penicillin (conjugate, UniProt P02770 25-608, looked up)
Albumin: EAHKSEIAHRFKDLGEQHFKGLVLIAFSQYLQKCPYEEHIKLVQEVTDFAKTCVADENAENCDKSIHTLFGDKLCAIPKLRDNYGELADCCAKQEPERNECFLQHKDDNPNLPPFQRPEAEAMCTSFQENPTSFLGHYLHEVARRHPYFYAPELLYYAEKYNEVLTQCCTESDKAACLTPKLDAVKEKALVAAVRQRMKCSSMQRFGERAFKAWAVARMSQRFPNAEFAEITKLATDVTKINKECCHGDLLECADDRAELAKYMCENQATISSKLQACCDKPVLQKSQCLAEIEHDNIPADLPSIAADFVEDKEVCKNYAEAKDVFLGTFLYEYSRRHPDYSVSLLLRLAKKYEATLEKCCAEGDPPACYGTVLAEFQPLVEEPKNLVKTNCELYEKLGEYGFQNAVLVRYTQKAPQVSTPTLVEAARNLGRVGTKCCTLPEAQRLPCVEDYLSAILNRLCVLHEKTPVSEKVTKCCSGSLVERRPCFSALTVDETYVPKEFKAETFTFHSDICTLPDKEKQIKKQTALAELVKHKPKATEDQLKTVMGDFAQFVDKCCKAADKDNCFATEGPNLVARSKEALA
modifications: penicillin-modified
Question: For B1, which “severity of adoptive EAE (pathogenicity of BP10 line)” value ([3]; BP10 line stimulated 3 days with 5 mg/ml in stimulation medium) is on record?
Answer: could also enhance the encephalogenicity of the BP10 line

Source: patent publication US9345691B2, “Beta-lactam compounds for enhancing T cell-mediated immune responses” (STEM CELL MEDICINE LTD., priority 2011, dated 2016)
